Test results from ChEMBL document CHEMBL1136896, “Synthesis and biological evaluation of arylhydrazinocyanoacrylates and N-aryl pyrazolecarboxylates” (2009).

System: Digitaria sanguinalis
Test: Herbicidal activity against Digitaria sanguinalis (L.) Scop. at 1.5 kg/hectare administered preemergence of first true leaf measured after 10 days
Format: functional
Conditions: pre-emergence, 240 h

Structure (SMILES) | inhibition at 1500 g/ha [%]
CCOCCOC(=O)c1c(SC)nn(-c2ccccc2)c1N | 0
CCOCCOC(=O)/C(C#N)=C(\NNc1ccc(Cl)cc1Cl)C(C)C | 3.8
CCOCCOC(=O)c1c(SC)nn(-c2ccc(Cl)cc2)c1N | 0
CCOCCOC(=O)c1c(CC)nn(-c2ccc([N+](=O)[O-])cc2)c1N | 0

System: Alternaria solani
Test: Fungicidal activity against Alternaria solani assessed as inhibition of mycelium growth at 50 mg/L after 72 hrs
Format: functional
Conditions: not given

Structure (SMILES) | inhibition at 50 µg/mL [%]
CCOCCOC(=O)c1c(SC)nn(-c2ccccc2)c1N | 8
CCOCCOC(=O)/C(C#N)=C(\NNc1ccc(Cl)cc1Cl)C(C)C | 40
CCOCCOC(=O)c1c(SC)nn(-c2ccc(Cl)cc2)c1N | 20
CCOCCOC(=O)c1c(CC)nn(-c2ccc([N+](=O)[O-])cc2)c1N | 8

System: Brassica napus
Test: Herbicidal activity against Brassica napus L. at 1.5 kg/hectare administered preemergence of first true leaf measured after 10 days
Format: functional
Conditions: pre-emergence, 240 h

Structure (SMILES) | inhibition at 1500 g/ha [%]
CCOCCOC(=O)c1c(SC)nn(-c2ccccc2)c1N | 0
CCOCCOC(=O)/C(C#N)=C(\NNc1ccc(Cl)cc1Cl)C(C)C | 0
CCOCCOC(=O)c1c(SC)nn(-c2ccc(Cl)cc2)c1N | 0
CCOCCOC(=O)c1c(CC)nn(-c2ccc([N+](=O)[O-])cc2)c1N | 0

System: Medicago sativa
Test: Herbicidal activity against Medicago sativa at 1.5 kg/hectare administered postemergence of first true leaf measured after 10 days
Format: functional
Conditions: post-emergence, 240 h

Structure (SMILES) | inhibition at 1500 g/ha [%]
CCOCCOC(=O)c1c(SC)nn(-c2ccccc2)c1N | 38.3
CCOCCOC(=O)/C(C#N)=C(\NNc1ccc(Cl)cc1Cl)C(C)C | 7.5
CCOCCOC(=O)c1c(SC)nn(-c2ccc(Cl)cc2)c1N | 0
CCOCCOC(=O)c1c(CC)nn(-c2ccc([N+](=O)[O-])cc2)c1N | 0

System: Bel-7402
Test: Antitumor activity against human Bel7402 cells at 10 uM/L after 72 hrs by MTT assay
Format: functional
Conditions: Bel-7402, 72 h

Structure (SMILES) | inhibition at 10 µM [%]
CCOCCOC(=O)c1c(SC)nn(-c2ccccc2)c1N | 0
CCOCCOC(=O)/C(C#N)=C(\NNc1ccc(Cl)cc1Cl)C(C)C | 4.3
CCOCCOC(=O)c1c(CC)nn(-c2ccc([N+](=O)[O-])cc2)c1N | 0

System: HL-60
Test: Antitumor activity against human HL60 cells at 100 uM/L after 72 hrs by MTT assay
Format: functional
Conditions: HL-60, 72 h

Structure (SMILES) | inhibition at 100 µM [%]
CCOCCOC(=O)c1c(SC)nn(-c2ccccc2)c1N | 0.6
CCOCCOC(=O)/C(C#N)=C(\NNc1ccc(Cl)cc1Cl)C(C)C | 17.6
CCOCCOC(=O)c1c(CC)nn(-c2ccc([N+](=O)[O-])cc2)c1N | 13.1

System: Botryosphaeria berengeriana
Test: Fungicidal activity against Physalospora pyricola assessed as inhibition of mycelium growth at 50 mg/L after 72 hrs
Format: functional
Conditions: not given

Structure (SMILES) | inhibition at 50 µg/mL [%]
CCOCCOC(=O)c1c(SC)nn(-c2ccccc2)c1N | 0
CCOCCOC(=O)/C(C#N)=C(\NNc1ccc(Cl)cc1Cl)C(C)C | 73.3
CCOCCOC(=O)c1c(SC)nn(-c2ccc(Cl)cc2)c1N | 36
CCOCCOC(=O)c1c(CC)nn(-c2ccc([N+](=O)[O-])cc2)c1N | 40

System: Digitaria sanguinalis
Test: Herbicidal activity against Digitaria sanguinalis at 1.5 kg/hectare administered postemergence of first true leaf measured after 10 days
Format: functional
Conditions: post-emergence, 240 h

Structure (SMILES) | inhibition at 1500 g/ha [%]
CCOCCOC(=O)c1c(SC)nn(-c2ccccc2)c1N | 0
CCOCCOC(=O)/C(C#N)=C(\NNc1ccc(Cl)cc1Cl)C(C)C | 17.9
CCOCCOC(=O)c1c(SC)nn(-c2ccc(Cl)cc2)c1N | 0
CCOCCOC(=O)c1c(CC)nn(-c2ccc([N+](=O)[O-])cc2)c1N | 0

System: Cladosporium cucumerinum
Test: Fungicidal activity against Cladosporium cucumerinum assessed as inhibition of mycelium growth at 50 mg/L after 72 hrs
Format: functional
Conditions: not given

Structure (SMILES) | inhibition at 50 µg/mL [%]
CCOCCOC(=O)c1c(SC)nn(-c2ccccc2)c1N | 12.7
CCOCCOC(=O)/C(C#N)=C(\NNc1ccc(Cl)cc1Cl)C(C)C | 22.2
CCOCCOC(=O)c1c(SC)nn(-c2ccc(Cl)cc2)c1N | 23.6
CCOCCOC(=O)c1c(CC)nn(-c2ccc([N+](=O)[O-])cc2)c1N | 36.4

System: Medicago sativa
Test: Herbicidal activity against Medicago sativa at 1.5 kg/hectare administered preemergence of first true leaf measured after 10 days
Format: functional
Conditions: pre-emergence, 240 h

Structure (SMILES) | inhibition at 1500 g/ha [%]
CCOCCOC(=O)c1c(SC)nn(-c2ccccc2)c1N | 0
CCOCCOC(=O)/C(C#N)=C(\NNc1ccc(Cl)cc1Cl)C(C)C | 0
CCOCCOC(=O)c1c(SC)nn(-c2ccc(Cl)cc2)c1N | 0
CCOCCOC(=O)c1c(CC)nn(-c2ccc([N+](=O)[O-])cc2)c1N | 0

System: Amaranthus retroflexus
Test: Herbicidal activity against Amaranthus retroflexus at 1.5 kg/hectare administered preemergence of first true leaf measured after 10 days
Format: functional
Conditions: pre-emergence, 240 h

Structure (SMILES) | inhibition at 1500 g/ha [%]
CCOCCOC(=O)c1c(SC)nn(-c2ccccc2)c1N | 10
CCOCCOC(=O)/C(C#N)=C(\NNc1ccc(Cl)cc1Cl)C(C)C | 0
CCOCCOC(=O)c1c(SC)nn(-c2ccc(Cl)cc2)c1N | 0
CCOCCOC(=O)c1c(CC)nn(-c2ccc([N+](=O)[O-])cc2)c1N | 0

System: Mycosphaerella arachidis
Test: Fungicidal activity against Cercospora arachidicola assessed as inhibition of mycelium growth at 50 mg/L after 72 hrs
Format: functional
Conditions: not given

Structure (SMILES) | inhibition at 50 µg/mL [%]
CCOCCOC(=O)c1c(SC)nn(-c2ccccc2)c1N | 41.2
CCOCCOC(=O)/C(C#N)=C(\NNc1ccc(Cl)cc1Cl)C(C)C | 51.5
CCOCCOC(=O)c1c(SC)nn(-c2ccc(Cl)cc2)c1N | 26.5
CCOCCOC(=O)c1c(CC)nn(-c2ccc([N+](=O)[O-])cc2)c1N | 39.2

System: Brassica napus
Test: Herbicidal activity against Brassica napus at 1.5 kg/hectare administered postemergence of first true leaf measured after 10 days
Format: functional
Conditions: post-emergence, 240 h

Structure (SMILES) | inhibition at 1500 g/ha [%]
CCOCCOC(=O)c1c(SC)nn(-c2ccccc2)c1N | 53.6
CCOCCOC(=O)/C(C#N)=C(\NNc1ccc(Cl)cc1Cl)C(C)C | 1.6
CCOCCOC(=O)c1c(SC)nn(-c2ccc(Cl)cc2)c1N | 0
CCOCCOC(=O)c1c(CC)nn(-c2ccc([N+](=O)[O-])cc2)c1N | 15

System: HL-60
Test: Antitumor activity against human HL60 cells at 1 uM/L after 72 hrs by MTT assay
Format: functional
Conditions: HL-60, 72 h

Structure (SMILES) | inhibition at 1 µM [%]
CCOCCOC(=O)c1c(SC)nn(-c2ccccc2)c1N | 4.3
CCOCCOC(=O)/C(C#N)=C(\NNc1ccc(Cl)cc1Cl)C(C)C | 0
CCOCCOC(=O)c1c(CC)nn(-c2ccc([N+](=O)[O-])cc2)c1N | 0.8

System: Fusarium graminearum
Test: Fungicidal activity against Gibberella zeae assessed as inhibition of mycelium growth at 50 mg/L after 72 hrs
Format: functional
Conditions: not given

Structure (SMILES) | inhibition at 50 µg/mL [%]
CCOCCOC(=O)c1c(SC)nn(-c2ccccc2)c1N | 42.2
CCOCCOC(=O)/C(C#N)=C(\NNc1ccc(Cl)cc1Cl)C(C)C | 4.8
CCOCCOC(=O)c1c(SC)nn(-c2ccc(Cl)cc2)c1N | 37.8
CCOCCOC(=O)c1c(CC)nn(-c2ccc([N+](=O)[O-])cc2)c1N | 11.1

System: Bel-7402
Test: Antitumor activity against human Bel7402 cells at 1 uM/L after 72 hrs by MTT assay
Format: functional
Conditions: Bel-7402, 72 h

Structure (SMILES) | inhibition at 1 µM [%]
CCOCCOC(=O)c1c(SC)nn(-c2ccccc2)c1N | 0
CCOCCOC(=O)/C(C#N)=C(\NNc1ccc(Cl)cc1Cl)C(C)C | 5.3
CCOCCOC(=O)c1c(CC)nn(-c2ccc([N+](=O)[O-])cc2)c1N | 0

System: Amaranthus retroflexus
Test: Herbicidal activity against Amaranthus retroflexus at 1.5 kg/hectare administered postemergence of first true leaf measured after 10 days
Format: functional
Conditions: post-emergence, 240 h

Structure (SMILES) | inhibition at 1500 g/ha [%]
CCOCCOC(=O)c1c(SC)nn(-c2ccccc2)c1N | 32
CCOCCOC(=O)/C(C#N)=C(\NNc1ccc(Cl)cc1Cl)C(C)C | 3.9
CCOCCOC(=O)c1c(SC)nn(-c2ccc(Cl)cc2)c1N | 0
CCOCCOC(=O)c1c(CC)nn(-c2ccc([N+](=O)[O-])cc2)c1N | 0

System: HL-60
Test: Antitumor activity against human HL60 cells at 1000 uM/L after 72 hrs by MTT assay
Format: functional
Conditions: HL-60, 72 h

Structure (SMILES) | inhibition at 1000 µM [%]
CCOCCOC(=O)c1c(SC)nn(-c2ccccc2)c1N | 10.6
CCOCCOC(=O)/C(C#N)=C(\NNc1ccc(Cl)cc1Cl)C(C)C | 73.2
CCOCCOC(=O)c1c(CC)nn(-c2ccc([N+](=O)[O-])cc2)c1N | 41.5

System: Bel-7402
Test: Antitumor activity against human Bel7402 cells at 1000 uM/L after 72 hrs by MTT assay
Format: functional
Conditions: Bel-7402, 72 h

Structure (SMILES) | inhibition at 1000 µM [%]
CCOCCOC(=O)c1c(SC)nn(-c2ccccc2)c1N | 49
CCOCCOC(=O)/C(C#N)=C(\NNc1ccc(Cl)cc1Cl)C(C)C | 45.9
CCOCCOC(=O)c1c(CC)nn(-c2ccc([N+](=O)[O-])cc2)c1N | 45.2

System: Bel-7402
Test: Antitumor activity against human Bel7402 cells at 100 uM/L after 72 hrs by MTT assay
Format: functional
Conditions: Bel-7402, 72 h

Structure (SMILES) | inhibition at 100 µM [%]
CCOCCOC(=O)c1c(SC)nn(-c2ccccc2)c1N | 0
CCOCCOC(=O)/C(C#N)=C(\NNc1ccc(Cl)cc1Cl)C(C)C | 6.5
CCOCCOC(=O)c1c(CC)nn(-c2ccc([N+](=O)[O-])cc2)c1N | 0

System: HL-60
Test: Antitumor activity against human HL60 cells at 10 uM/L after 72 hrs by MTT assay
Format: functional
Conditions: HL-60, 72 h

Structure (SMILES) | inhibition at 10 µM [%]
CCOCCOC(=O)c1c(SC)nn(-c2ccccc2)c1N | 6.8
CCOCCOC(=O)/C(C#N)=C(\NNc1ccc(Cl)cc1Cl)C(C)C | 6
CCOCCOC(=O)c1c(CC)nn(-c2ccc([N+](=O)[O-])cc2)c1N | 1.3

System: Cucumis sativus
Test: Growth regulatory activity in cucumber assessed as root growth at 10 mg/L incubated in dark for 5 days
Format: functional
Conditions: not given

Structure (SMILES) | Activity [%]
CCOCCOC(=O)c1c(SC)nn(-c2ccccc2)c1N | 50.4
CCOCCOC(=O)/C(C#N)=C(\NNc1ccc(Cl)cc1Cl)C(C)C | -27.8
CCOCCOC(=O)c1c(SC)nn(-c2ccc(Cl)cc2)c1N | 66.6
CCOCCOC(=O)c1c(CC)nn(-c2ccc([N+](=O)[O-])cc2)c1N | 5.6
